For one assay, the system named is DNA. Put plainly: Binding affinity to Bos taurus (calf) thymus DNA assessed as hypochromicity at 15 uM by spectrophotmetry analysis. It counts as nucleic-acid assay.
For a further assay, the system named is HL-60. Put plainly: Cytotoxicity against Homo sapiens (human) HL60 cells after 48 hr by trypan blue assay. The note with it: HL-60, 48 h. Type of assay: functional, cell-based.
The subject of another assay is MCF7. Put plainly: Cytotoxicity against Homo sapiens (human) MCF7 cells after 48 hr by trypan blue assay. The note with it: MCF7, 48 h. Type of assay: functional, cell-based.

For orientation: IC50 means the concentration at which inhibition is half-maximal. Higher therefore signals a need for much substance. With `Cc1cc(C)c2c(=O)c3ccccc3n(CCCCN3CCCC3)c2c1`, in the assay on DNA, the Activity was determined as 29%. The half-maximal inhibitory concentration (IC50) in the assay with HL-60 was found to be 14.1 µM; in the assay with MCF7, 4.56 µM.
In the case of `Cc1cc(C)c2c(=O)c3ccccc3n(CCCN3CCCCC3)c2c1`, the figures for the half-inhibitory concentration (IC50) with HL-60 and in the assay on MCF7 were 14.1 µM and 34.6 µM, respectively.
Consider `Cc1cc(C)c2c(=O)c3ccccc3n(CCCCN3CCN(C)CC3)c2c1`, for which, in the assay on DNA, the Activity came out at 51%. The results for the half-maximal inhibitory concentration (IC50) in the assay with HL-60 and in the assay on MCF7 were 1.74 µM and 8.96 µM, respectively.
Take `Cc1cc(C)c2c(=O)c3ccccc3n(CCCCN3CCN(CCO)CC3)c2c1`: the Activity with DNA was 53%. Besides, the half-inhibitory concentration (IC50) in the assay on HL-60 is 11 µM; with MCF7 it was 4 µM.
For `CCN(CC)CCCCn1c2ccccc2c(=O)c2c(C)cc(C)cc21`, the Activity with DNA was 52%. Further, the figures for the IC50 in the assay with HL-60 and in the assay with MCF7 were 0.45 µM and 7.98 µM, respectively.
Taken in the same sequence, the figures for `CCN(CC)CCCn1c2ccccc2c(=O)c2c(C)cc(C)cc21` were 40%, 1.65 µM and 11.2 µM.
Taken in the same sequence, the figures for `Cc1cc(C)c2c(=O)c3ccccc3n(CCCN3CCN(C)CC3)c2c1` were 48%, 15.4 µM and 28.5 µM.
For `Cc1cc(C)c2c(=O)c3ccccc3n(CCCCN3CCCCC3)c2c1`, the Activity in the assay with DNA is 50%. For the same compound, the figures for the half-inhibitory concentration (IC50) in the assay with HL-60 and in the assay on MCF7 were 1.41 µM and 6.67 µM, respectively.
Take `Cc1cc(C)c2c(=O)c3ccccc3[nH]c2c1`: the IC50 in the assay with HL-60 was 20 µM; with MCF7, 78.9 µM.
On to `Cc1cc(C)c2c(=O)c3ccccc3n(CCCN3CCN(CCO)CC3)c2c1`, for which, in the assay with DNA, the Activity is 52%. In addition, the IC50 with HL-60 is 10.9 µM; with MCF7, 7.87 µM.
`Cc1cc(C)c2c(=O)c3ccccc3n(CCCCN3CCOCC3)c2c1`: the Activity in the assay on DNA amounted to 35%. In addition, the IC50 with HL-60 is 0.51 µM; with MCF7, 8.45 µM.
Consider `O=P1(N(CCCl)CCCl)NCCCO1` (stereo unspecified) [CYCLOPHOSPHAMIDE ANHYDROUS], for which half-maximal inhibition in the assay with MCF7 (IC50) required 0.16 µM.
Consider `Cc1cc(C)c2c(=O)c3ccccc3n(CCCCCl)c2c1`, for which the figures for the 50% inhibitory concentration (IC50) with HL-60 and in the assay with MCF7 were 14.2 µM and 34.4 µM, respectively.
In the same order, the values of `Cc1cc(C)c2c(=O)c3ccccc3n(CCCCl)c2c1` are 16.4 µM and 54.4 µM.
Consider `Cc1cc(C)c2c(=O)c3ccccc3n(CCCN3CCOCC3)c2c1`, for which the Activity with DNA stood at 13%. Moreover, the values for the half-inhibitory concentration (IC50) in the assay on HL-60 and with MCF7 were 13.7 µM and 43.9 µM, respectively.
For the compound `Cc1cc(C)c2c(=O)c3ccccc3n(CCCN3CCCC3)c2c1`, the results for the concentration for half-maximal inhibition (IC50) with HL-60 and with MCF7 were 14.6 µM and 19.7 µM, respectively.

Values taken from ChEMBL document CHEMBL3045043, “Synthesis, chemical characterization of novel 1,3-dimethyl acridones as cytotoxic agents, and their DNA-binding studies” (Med Chem Res, 2010).
